Experimental data taken from US20120277197A1, “TIGECYCLINE FORMULATIONS” (WYETH, priority 2008, published 2012).

Test: Effect of pH on stability of tigecycline 0.50 mg/ml in Normal Saline, in a flask at 25° C.
Type: physicochemical
Description: The effect of pH on the stability of tigecycline formulations having a concentration of 0.50 mg tigecycline/ml in a Normal Saline solution was studied by analyzing the variation of tigecycline content, total impurity content, and the concentration of tigecycline epimer at different pH values, either in the presence of air or under an atmosphere having an oxygen content of less than 1 ppm, in a flask at 25° C.

[1] = pH 4.5, 72 h, in the presence of air
[2] = pH 5.0, 0 h, in the presence of air
[3] = pH 5.0, 24 h, in the presence of air
[4] = pH 5.0, 72 h, in the presence of air
[5] = pH 5.5, 0 h, in the presence of air
[6] = pH 5.5, 24 h, in the presence of air
[7] = pH 5.5, 72 h, in the presence of air
[8] = pH 6.5, 0 h, in the presence of air
[9] = pH 6.5, 8 h, in the presence of air
[10] = pH 6.5, 24 h, in the presence of air
[11] = pH 6.5, 72 h, in the presence of air
[12] = pH 8.0, 0 h, in the presence of air
[13] = pH 8.0, 8 h, in the presence of air
[14] = pH 8.0, 24 h, in the presence of air
[15] = pH 8.0, 72 h, in the presence of air

CN(C)c1cc(NC(=O)CNC(C)(C)C)c(O)c2c1C[C@H]1C[C@H]3[C@H](N(C)C)C(O)=C(C(N)=O)C(=O)[C@@]3(O)C(O)=C1C2=O [tigecycline, Tigecycline]
Percentage of tigecycline remaining (pH 4.5, 24 h, oxygen <1 ppm): 99.72%
Total impurity content as a % of initial weight of tigecycline (pH 4.5, 24 h, oxygen <1 ppm): 0.682%
Total tigecycline epimer content as a % of initial weight of tigecycline (pH 4.5, 24 h, oxygen <1 ppm): 0.547%
Percentage of tigecycline remaining [1]: 97%
Total impurity content as a % of initial weight of tigecycline [1]: 2.625%
Total tigecycline epimer content as a % of initial weight of tigecycline [1]: 1.95%
Percentage of tigecycline remaining (pH 4.5, 72 h, oxygen <1 ppm): 98.50%
Total impurity content as a % of initial weight of tigecycline (pH 4.5, 72 h, oxygen <1 ppm): 2.365%
Total tigecycline epimer content as a % of initial weight of tigecycline (pH 4.5, 72 h, oxygen <1 ppm): 1.934%
Percentage of tigecycline remaining [2]: 100%
Total impurity content as a % of initial weight of tigecycline [2]: 0.29%
Total tigecycline epimer content as a % of initial weight of tigecycline [2]: 0.167%
Percentage of tigecycline remaining [3]: 101%
Total impurity content as a % of initial weight of tigecycline [3]: 0.691%
Total tigecycline epimer content as a % of initial weight of tigecycline [3]: 0.49%
Percentage of tigecycline remaining [4]: 99%
Total impurity content as a % of initial weight of tigecycline [4]: 2.632%
Total tigecycline epimer content as a % of initial weight of tigecycline [4]: 1.69%
Percentage of tigecycline remaining [5]: 100%
Total impurity content as a % of initial weight of tigecycline [5]: 0.31%
Total tigecycline epimer content as a % of initial weight of tigecycline [5]: 0.162%
Percentage of tigecycline remaining [6]: 99%
Total impurity content as a % of initial weight of tigecycline [6]: 0.865%
Total tigecycline epimer content as a % of initial weight of tigecycline [6]: 0.52%
Percentage of tigecycline remaining [7]: 97%
Total impurity content as a % of initial weight of tigecycline [7]: 3.221%
Total tigecycline epimer content as a % of initial weight of tigecycline [7]: 1.31%
Percentage of tigecycline remaining [8]: 100%
Total impurity content as a % of initial weight of tigecycline [8]: 0.31%
Total tigecycline epimer content as a % of initial weight of tigecycline [8]: 0.15%
Percentage of tigecycline remaining (pH 6.5, 0 h, oxygen <1 ppm): 100.0%
Total impurity content as a % of initial weight of tigecycline (pH 6.5, 0 h, oxygen <1 ppm): 0.224%
Total tigecycline epimer content as a % of initial weight of tigecycline (pH 6.5, 0 h, oxygen <1 ppm): 0.111%
Percentage of tigecycline remaining [9]: 100%
Total impurity content as a % of initial weight of tigecycline [9]: 0.602%
Total tigecycline epimer content as a % of initial weight of tigecycline [9]: 0.26%
Percentage of tigecycline remaining (pH 6.5, 8 h, oxygen <1 ppm): 100.56%
Total impurity content as a % of initial weight of tigecycline (pH 6.5, 8 h, oxygen <1 ppm): 0.399%
Total tigecycline epimer content as a % of initial weight of tigecycline (pH 6.5, 8 h, oxygen <1 ppm): 0.188%
Percentage of tigecycline remaining [10]: 100%
Total impurity content as a % of initial weight of tigecycline [10]: 1.429%
Total tigecycline epimer content as a % of initial weight of tigecycline [10]: 0.43%
Percentage of tigecycline remaining (pH 6.5, 24 h, oxygen <1 ppm): 99.59%
Total impurity content as a % of initial weight of tigecycline (pH 6.5, 24 h, oxygen <1 ppm): 0.812%
Total tigecycline epimer content as a % of initial weight of tigecycline (pH 6.5, 24 h, oxygen <1 ppm): 0.45%
Percentage of tigecycline remaining [11]: 86%
Total impurity content as a % of initial weight of tigecycline [11]: 11.78%
Total tigecycline epimer content as a % of initial weight of tigecycline [11]: 1.08%
Percentage of tigecycline remaining (pH 6.5, 72 h, oxygen <1 ppm): 98.03%
Total impurity content as a % of initial weight of tigecycline (pH 6.5, 72 h, oxygen <1 ppm): 2.654%
Total tigecycline epimer content as a % of initial weight of tigecycline (pH 6.5, 72 h, oxygen <1 ppm): 1.532%
Percentage of tigecycline remaining [12]: 100%
Total impurity content as a % of initial weight of tigecycline [12]: 0.30%
Total tigecycline epimer content as a % of initial weight of tigecycline [12]: 0.14%
Percentage of tigecycline remaining (pH 8.0, 0 h, oxygen <1 ppm): 100.0%
Total impurity content as a % of initial weight of tigecycline (pH 8.0, 0 h, oxygen <1 ppm): 0.22%
Total tigecycline epimer content as a % of initial weight of tigecycline (pH 8.0, 0 h, oxygen <1 ppm): 0.107%
Percentage of tigecycline remaining [13]: 100%
Total impurity content as a % of initial weight of tigecycline [13]: 0.924%
Total tigecycline epimer content as a % of initial weight of tigecycline [13]: 0.27%
Percentage of tigecycline remaining (pH 8.0, 8 h, oxygen <1 ppm): 100.81%
Total impurity content as a % of initial weight of tigecycline (pH 8.0, 8 h, oxygen <1 ppm): 0.443%
Total tigecycline epimer content as a % of initial weight of tigecycline (pH 8.0, 8 h, oxygen <1 ppm): 0.192%
Percentage of tigecycline remaining [14]: 95%
Total impurity content as a % of initial weight of tigecycline [14]: 3.737%
Total tigecycline epimer content as a % of initial weight of tigecycline [14]: 0.43%
Percentage of tigecycline remaining (pH 8.0, 24 h, oxygen <1 ppm): 99.64%
Total impurity content as a % of initial weight of tigecycline (pH 8.0, 24 h, oxygen <1 ppm): 1.214%
Total tigecycline epimer content as a % of initial weight of tigecycline (pH 8.0, 24 h, oxygen <1 ppm): 0.425%
Percentage of tigecycline remaining [15]: 57%
Total impurity content as a % of initial weight of tigecycline [15]: 29.654%
Total tigecycline epimer content as a % of initial weight of tigecycline [15]: 1.23%
Percentage of tigecycline remaining (pH 8.0, 72 h, oxygen <1 ppm): 95.98%
Total impurity content as a % of initial weight of tigecycline (pH 8.0, 72 h, oxygen <1 ppm): 3.461%
Total tigecycline epimer content as a % of initial weight of tigecycline (pH 8.0, 72 h, oxygen <1 ppm): 1.516%
